Source: PubChem BioAssay AID248 (DTP/NCI, 2004)
Where “and” joins values, the source holds several entries; their conditions need not be identical. Identical values can stand only once. Inconclusive results and toxic doses are left out. No stated cut-off is given here; in the data, active means T/C of 150% or more; inactive means T/C below 125%. Peptide text beside a SMILES is read from it.

Test system: L1210 leukemia ip in BDF1 mice, survival T/C
Assay: NCI In Vivo Anticancer Drug Screen. Data for tumor model L1210 Leukemia (intraperitoneal) in B6D2F1 (BDF1) mice
Conditions: endpoint: mean survival time, higher = longer survival
How it was run: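 Read-out is survival time, reported as the treated-group measurement over the vehicle-control measurement.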

[1] = dose: 100.0 mg/kg/injection, schedule: Q04DX003 (ip), vehicle: saline with Tween-80
[2] = dose: 200.0 mg/kg/injection, schedule: Q04DX003 (ip), vehicle: saline with Tween-80
[3] = dose: 100.0 mg/kg/injection, schedule: Q01DX009 (ip), vehicle: saline
[4] = dose: 200.0 mg/kg/injection, schedule: Q01DX009 (ip), vehicle: saline
[5] = dose: 400.0 mg/kg/injection, schedule: Q01DX009 (ip), vehicle: saline
[6] = dose: 400.0 mg/kg/injection, schedule: Q04DX003 (ip), vehicle: saline with Tween-80
[7] = dose: 100.0 mg/kg/injection, schedule: Q01DX009 (ip), vehicle: Klucel (hydroxypropylcellulose) (HPC)
[8] = dose: 100.0 mg/kg/injection, schedule: Q04DX003 (ip), vehicle: Klucel (hydroxypropylcellulose) (HPC)
[9] = dose: 200.0 mg/kg/injection, schedule: Q01DX009 (ip), vehicle: Klucel (hydroxypropylcellulose) (HPC)
[10] = dose: 200.0 mg/kg/injection, schedule: Q04DX003 (ip), vehicle: Klucel (hydroxypropylcellulose) (HPC)
[11] = dose: 12.5 mg/kg/injection, schedule: Q01DX009 (ip), vehicle: saline
[12] = dose: 25.0 mg/kg/injection, schedule: Q01DX009 (ip), vehicle: saline
[13] = dose: 50.0 mg/kg/injection, schedule: Q01DX009 (ip), vehicle: saline with Tween-80
[14] = dose: 100.0 mg/kg/injection, schedule: Q01DX001 (ip), vehicle: saline with Tween-80
[15] = dose: 200.0 mg/kg/injection, schedule: Q01DX001 (ip), vehicle: saline with Tween-80
[16] = dose: 400.0 mg/kg/injection, schedule: Q04DX002 (ip), vehicle: saline with Tween-80
[17] = dose: 75.0 mg/kg/injection, schedule: Q01DX001 (ip), vehicle: other
[18] = dose: 150.0 mg/kg/injection, schedule: Q01DX001 (ip), vehicle: other
[19] = dose: 50.0 mg/kg/injection, schedule: Q01DX001 (ip), vehicle: saline
[20] = dose: 100.0 mg/kg/injection, schedule: Q01DX001 (ip), vehicle: saline
[21] = dose: 200.0 mg/kg/injection, schedule: Q01DX001 (ip), vehicle: saline

Measured: T/C

NC1=CC(=O)c2ccccc2C1=O
inactive: dose: 15.6 mg/kg/injection, schedule: Q01DX Z (ip), vehicle: other 112 % of control | dose: 62.5 mg/kg/injection, schedule: Q01DX Z (ip), vehicle: other 106 % of control | [1] 103 % of control | [2] 98 % of control

CCOC(=O)c1ccc(=O)n(C)c1
inactive: [3] 102 % of control | [4] 96 % of control | [5] 98 % of control

COc1cc2c(c(OC)c1OC)CN(CC1COc3ccccc3O1)CC2 (configuration not stated)
inactive: [1] 98 % of control | [2] 101 % of control | [6] 96 % of control

COc1cc(N(CCCl)CCCl)ccc1CN1CCCN(Cc2ccc(N(CCCl)CCCl)cc2OC)C1c1ccccc1O
inactive: dose: 50.0 mg/kg/injection, schedule: Q01DX009 (ip), vehicle: Klucel (hydroxypropylcellulose) (HPC) 96 % of control | [7] 109 % of control | [8] 110 % of control | [9] 90 % of control | [10] 103 % of control

NCC(S)c1ccc(Cl)cc1 (configuration not stated)
inactive: [11] 114 % of control | [12] 101 % of control | dose: 50.0 mg/kg/injection, schedule: Q01DX009 (ip), vehicle: saline 97 % of control

CCCCOC(=O)c1ccc(OC(=O)Nc2ccc(Cl)cc2)cc1
inactive: dose: 25.0 mg/kg/injection, schedule: Q01DX009 (ip), vehicle: saline with Tween-80 101 % of control and 110 % of control | [13] 101 % of control and 110 % of control | [14] 104 % of control | dose: 100.0 mg/kg/injection, schedule: Q04DX002 (ip), vehicle: saline with Tween-80 93 % of control and 115 % of control | [1] 94 % of control | [15] 95 % of control | dose: 200.0 mg/kg/injection, schedule: Q04DX002 (ip), vehicle: saline with Tween-80 95 % of control and 110 % of control | [2] 94 % of control | dose: 400.0 mg/kg/injection, schedule: Q01DX001 (ip), vehicle: saline with Tween-80 98 % of control | [16] 100 % of control and 106 % of control | [6] 97 % of control

CN(c1ccccc1Cl)c1ccccc1Cl
inactive: dose: 64.0 mg/kg/injection, schedule: Q04DX002 (ip), vehicle: saline with Tween-80 104 % of control | dose: 160.0 mg/kg/injection, schedule: Q04DX002 (ip), vehicle: saline with Tween-80 89 % of control | [16] 86 % of control

COc1ccc(-c2sc(/N=C/c3cc(Br)cc(Br)c3O)c(C#N)c2C)cc1OC
inactive: [14] 89 % of control | [1] 93 % of control | [15] 91 % of control | [2] 98 % of control and 90 % of control | [6] 90 % of control

c1ccc(-c2cnc3nc4ccccc4nc3n2)cc1
inactive: [17] 87 % of control | [18] 91 % of control | dose: 300.0 mg/kg/injection, schedule: Q01DX001 (ip), vehicle: other 97 % of control

CC(NC(=O)C(CCC(=O)NCC(=O)O)NC(=O)C(N)Cc1ccc(O)cc1)C(=O)NCC(=O)NC(Cc1ccc(O)cc1)C(=O)NC(CCC(=O)NCC(=O)O)C(=O)NC(C)C(=O)NCC(=O)NCC(=O)O (configuration not stated) (H-YE(Gly)AGYE(Gly)AGG-OH; configuration not given here)
inactive: [19] 92 % of control | [20] 92 % of control | [21] 93 % of control

CC(O)C(O)C(N)CC=O (configuration not stated)
inactive: dose: 5.0 mg/kg/injection, schedule: Q01DX001 (ip), vehicle: saline 101 % of control | dose: 10.0 mg/kg/injection, schedule: Q01DX001 (ip), vehicle: saline 113 % of control | dose: 20.0 mg/kg/injection, schedule: Q01DX001 (ip), vehicle: saline 97 % of control | dose: 40.0 mg/kg/injection, schedule: Q01DX001 (ip), vehicle: saline 98 % of control | [3] 102 % of control | [4] 97 % of control | [5] 97 % of control

NC(=O)NOCC1NC(=O)NC1=O (configuration not stated)
inactive: [3] 96 % of control | [4] 102 % of control | [5] 102 % of control

CC(C)(C)C1CCC(Cl)C(O)C1 (configuration not stated)
inactive: [3] 104 % of control | [4] 100 % of control

O=C(CNS(=O)(=O)c1ccccc1)c1ccc(Cl)cc1Cl
inactive: [7] 94 % of control | [9] 105 % of control | dose: 400.0 mg/kg/injection, schedule: Q01DX009 (ip), vehicle: Klucel (hydroxypropylcellulose) (HPC) 95 % of control

O=[N+]([O-])c1cc(Cl)ccc1S(=O)(=O)CC(Cl)c1ccccc1 (configuration not stated)
inactive: dose: 100.0 mg/kg/injection, schedule: Q01DX001 (ip), vehicle: acetone 104 % of control | dose: 100.0 mg/kg/injection, schedule: Q01DX009 (ip), vehicle: acetone 98 % of control | dose: 100.0 mg/kg/injection, schedule: Q04DX003 (ip), vehicle: acetone 108 % of control | dose: 200.0 mg/kg/injection, schedule: Q01DX001 (ip), vehicle: acetone 104 % of control | dose: 200.0 mg/kg/injection, schedule: Q01DX009 (ip), vehicle: acetone 87 % of control and 88 % of control | dose: 200.0 mg/kg/injection, schedule: Q04DX003 (ip), vehicle: acetone 100 % of control | dose: 400.0 mg/kg/injection, schedule: Q01DX001 (ip), vehicle: acetone 101 % of control | dose: 400.0 mg/kg/injection, schedule: Q01DX009 (ip), vehicle: acetone 106 % of control and 92 % of control | dose: 400.0 mg/kg/injection, schedule: Q04DX003 (ip), vehicle: acetone 100 % of control

C[N+](C)(C)Cn1nnc2ccccc21
inactive: dose: 75.0 mg/kg/injection, schedule: Q01DX001 (ip), vehicle: saline 105 % of control | dose: 150.0 mg/kg/injection, schedule: Q01DX001 (ip), vehicle: saline 108 % of control

CCOC(=O)Nc1cc(NC(C)CCCN(CC)CC)c2ncc(-c3ccc(Cl)c(Cl)c3)nc2n1 (configuration not stated) (tested in a mixture with another compound)
inactive: dose: 6.25 mg/kg/injection, schedule: Q01DX001 (ip), vehicle: saline 99 % of control | dose: 6.25 mg/kg/injection, schedule: Q01DX009 (ip), vehicle: saline 91 % of control | dose: 12.5 mg/kg/injection, schedule: Q01DX001 (ip), vehicle: saline 101 % of control | [11] 95 % of control | dose: 25.0 mg/kg/injection, schedule: Q01DX001 (ip), vehicle: saline 89 % of control | [12] 106 % of control | [20] 103 % of control

Clc1cccc(NCCc2ccccc2)c1
inactive: [8] 94 % of control | [10] 94 % of control | dose: 400.0 mg/kg/injection, schedule: Q04DX003 (ip), vehicle: Klucel (hydroxypropylcellulose) (HPC) 102 % of control

O=C(c1ccccc1)C(C(c1ccccc1)N1CCOCC1)N1CCOCC1 (configuration not stated)
inactive: [19] 113 % of control | [20] 102 % of control | [21] 108 % of control | dose: 400.0 mg/kg/injection, schedule: Q01DX001 (ip), vehicle: saline 102 % of control

O=C1CC2CCCCC2O1 (configuration not stated)
inactive: [13] 96 % of control | [17] 103 % of control | dose: 100.0 mg/kg/injection, schedule: Q01DX009 (ip), vehicle: saline with Tween-80 88 % of control | [18] 97 % of control and 115 % of control
